Test results reported in patent US20240376097A1, “BCL-2 Inhibitor” (BeiGene Ltd., priority 2020, published 2024).

Assays:
[1] = system: BCL-2 G101V knock-in cell line H96 (derive from RS4;11); assay: Bcl 2-G101V Knock-In RS4;11 Cell Proliferation Assay; assay type: cell-based; details: Homo sapiens, RS4;11 Bcl-2 G101V knock-in clone H96, 48 hrs, CellTiter-GLO, read-out: Cellular proliferation assay (IC50, nM) RS4
Protocol: Biological Example: Bcl 2-G101V Knock-In RS4;11 Cell Proliferation Assay
(1) RS4;11 H96 Bcl 2-G101V Knock-In Cell Line Generation
Briefly, RS4;11 BCL2-G101V knock-in cell pool was generated using Crisper/Cas9 gene editing system and the BCL2-G101V knock-in single clone H96 was picked from the knock-in cell pool and validated by WES (whole exome-sequencing) and RNA-seq.
The BCL-2 dependent acute lymphoblastic leukemia (ALL) cell line, RS4;11(ATCC, CRL-1873), was cultured in RPMI-1640 complete medium (RPMI-1640 medium, HEPES (Gibco, 22400-105) supplemented with 10% fetal bovine serum (FBS) (Gibco, 10099-1441), 100 unit/ml penicillin and 100 μg/ml streptomycin (Gibco, 15140122)) and maintained in a humidified chamber at 37° C. containing 5% CO2.
To obtain BCL2-G101V knock-in cell pool, RS4;11 was co-transfected with the Cas9-gRNA which also expressed GFP label, and the Donor gene which contained the BCL2-G101V mutant sequence. After 48 hrs of electroporation, the GFP positive cells were collected through FACSAriaIII cell sorting system. Cell pool was recovered for 3 days and then cultured under 2 nM ABT-199 stress for 4 weeks. […] Then cells were plated in 96 well U-plate with 1 cell/well for 10000 wells for single clone selection. After 3-5 weeks growing, clones were successively screened by PCR sequencing. And three BCL2-G101V knock-in clones: H96, H142 and H233, have been picked out.
Three clones were validated by genome DNA and cDNA(mRNA) PCR sequencing, and BCL-2, BCL-xL and MCL-1 expression using Western Blot. The H96 clone was also validated by WES (whole exome-sequencing) and RNA-seq.
(2) Bcl 2-G101V Knock-In RS4;11 Cell Proliferation Assay
The BCL-2 G101V knock-in cell line H96 (derive from RS4;11) were used to study the cellular potency of BCL-2 inhibitors. The cells were cultured in RPMI-1640 complete medium (RPMI-1640 medium, HEPES (Gibco, 22400-105) supplemented with 10% fetal bovine serum (FBS) (Gibco, 10099-1441), 100 unit/ml penicillin and 100 μg/ml streptomycin (Gibco, 15140122)) and maintained in a humidified chamber at 37° C. containing 5% CO2. Each compound was serially diluted with 1 μM or 10 μM as the maximum concentration. To test the apoptotic effect of the compounds, the cells were seeded at 50,000 in 90 μl per well in 96-well plates and treated with 10-point dilution series of each compound for 48 hrs at 37° C. Cell viability was assessed after the treatment using CellTiter-GLO luminescent assay (Promega) according to the manufacturer's recommendations. Briefly, 30 μl of CellTiter-GLO reagent was added into 100 μl of cell culture. Mixture was agitated on an orbital shaker for 5 min to ensure cell lysis followed by 7 min incubation at room temperature to allow development and stabilization of luminescent signals, which corresponded to the quantity of ATP and thus the quantity of metabolically active cells. Luminescent signals were measured using PHERAstar FS reader (BMG). Mean IC50 values were determined with GraphPad Prism software.

[2] = biological target: Recombinant human Bcl-2 protein (Homo sapiens (Human), UniProt P10415); assay: Bcl-2 TR-FRET Assay; assay type: binding; details: Bcl-2 wild type, TR-FRET; read-out: Biochemical assay (IC50, nM) Bcl-2 WT
Procedure, shortened: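 Compounds were pre-incubated with 0.05 nM recombinant Bcl-2 for 0.5 h at room temperature in potassium phosphate buffer, pH 7.5. FITC-Bak peptide (0.5 nM) and Tb-cryptate antibody were then added for 1 h. Percent inhibition from TR-FRET signals gave IC50 values.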

[3] = biological target: recombinant human Bcl-2-G101V protein (Homo sapiens (Human), UniProt P10415, G101V); assay: Bcl-2-G101V TR-FRET Assay; assay type: binding; details: Bcl-2 G101V mutant, TR-FRET; read-out: Biochemical assay (IC50, nM) Bcl-2 G101V
Procedure, shortened: (§1)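 Compounds were titrated at increasing concentrations against the Bcl-2-G101V–ligand interaction. TR-FRET signals were then read (ex 337 nm; em 490/520 nm). Percent inhibition was derived from the 490-to-520 nm ratio, and IC50 from a four-parameter logistic equation.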

[4] = system: recombinant human Bcl-2-G101V protein; assay: Bcl-2-G101V TR-FRET Assay; assay type: binding; details: ratio of biochemical IC50 Bcl-2 G101V / Bcl-2 WT
Procedure, shortened: as §1

[5] = system: RS4;11 (BCL-2 dependent acute lymphoblastic leukemia cell line); assay: RS4;11 Cell Proliferation Assay; assay type: cell-based; details: Homo sapiens, RS4-11, RS4;11 cells, read-out: Cellular proliferation assay (IC50, nM) RS4
Procedure, shortened: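 RS4;11 cells, 50,000 per well in RPMI-1640 with 10% FBS, treated 48 h at 37 °C with a 10-point dilution series topping at 1 μM. Viability read by CellTiter-Glo ATP luminescence; mean IC50 reported.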

Structure (SMILES) | IC50 [1] | IC50 [2] | IC50 [3] | Ratio of Bcl-2 G101V/WT [4] | IC50 [5]
COc1ccc(CN2CCN(C3CC4(CCN(c5ccc(C(=O)NS(=O)(=O)c6ccc(NCC7CCOCC7)c([N+](=O)[O-])c6)c(Oc6cnc7[nH]ccc7c6)c5)CC4)C3)[C@H](c3ccccc3C(C)C)C2)cc1 (single isomer, unassigned) [Example 69, (R or S)-2-((1H-pyrrolo[2,3-b]pyridin-5-yl)oxy)-4-(2-(2-(2-isopropylphenyl)-4-(4-methoxybenzyl)piperazin-1-yl)-7-azaspiro[3.5]nonan-7-yl)-N-((3-nitro-4-(((tetrahydro-2H-pyran-4-yl)methyl)amino)phenyl)sulfonyl) benzamide] | 2 nM | 0.041 nM | 0.37 nM | 8.9 | 0.47 nM
CCN1CCN(C2CC3(CCN(c4ccc(C(=O)NS(=O)(=O)c5ccc(NC[C@H]6CC[C@](C)(O)CC6)c([N+](=O)[O-])c5)c(Oc5cnc6[nH]ccc6c5)c4)CC3)C2)C(c2ccccc2C(C)C)C1 (stereo partly shown) [Example 2] | 3.94 nM | 0.011 nM | 0.25 nM | 22.7 | 0.53 nM
CC(C)c1ccccc1C1CN(C2CCCCC2)CCN1C1CC2(CCN(c3ccc(C(=O)NS(=O)(=O)c4ccc(NC[C@H]5CC[C@](C)(O)CC5)c([N+](=O)[O-])c4)c(Oc4cnc5[nH]ccc5c4)c3)CC2)C1 (stereo partly shown) [Example 9] | 4.37 nM | 0.034 nM | 0.52 nM | 15.3 | 0.51 nM
COc1ccc(CN2CCN(C3CC4(CCN(c5ccc(C(=O)NS(=O)(=O)c6ccc(NC[C@H]7CC[C@](C)(O)CC7)c([N+](=O)[O-])c6)c(Oc6cnc7[nH]ccc7c6)c5)CC4)C3)C(c3ccccc3C)C2)cc1 (stereo partly shown) [Example 34, 2-((1H-pyrrolo[2,3-b]pyridin-5-yl)oxy)-N-((4-((((1r,4r)-4-hydroxy-4-methylcyclohexyl)methyl)amino)-3-nitrophenyl)sulfonyl)-4-(2-(4-(4-methoxybenzyl)-2-(o-tolyl)piperazin-1-yl)-7-azaspiro[3.5]nonan-7-yl)benzamide] | 13.9 nM | 0.049 nM | 1.8 nM | 36.7 | 1.3 nM
COc1ccc(CN2CCN(C3CC4(CCN(c5ccc(C(=O)NS(=O)(=O)c6ccc(NC[C@H]7CC[C@](C)(O)CC7)c([N+](=O)[O-])c6)c(Oc6cnc7[nH]ccc7c6)c5)CC4)C3)C(c3ccccc3CN3CCOCC3)C2)cc1 (stereo partly shown) [Example 37, 2-((1H-pyrrolo[2,3-b]pyridin-5-yl)oxy)-N-((4-((((1r,4r)-4-hydroxy-4-methylcyclohexyl)methyl)amino)-3-nitrophenyl)sulfonyl)-4-(2-(4-(4-methoxybenzyl)-2-(2-(morpholinomethyl)phenyl)piperazin-1-yl)-7-azaspiro[3.5]nonan-7-yl)benzamide] | 289 nM | 0.42 nM | 12 nM | 28.6 | 77.4 nM
COc1ccc(CN2CCN(C3CC4(CCN(c5ccc(C(=O)NS(=O)(=O)c6ccc(NCC7CCOCC7)c([N+](=O)[O-])c6)c(Oc6cnc7[nH]ccc7c6)c5)CC4)C3)C(c3ccccc3C)C2)cc1 (stereo not shown) [Example 38] | 37.5 nM | 0.053 nM | 4.1 nM | 77.4 | 2.5 nM
COc1cccc(CN2CCN(C3CC4(CCN(c5ccc(C(=O)NS(=O)(=O)c6ccc(NC[C@H]7CC[C@](C)(O)CC7)c([N+](=O)[O-])c6)c(Oc6cnc7[nH]ccc7c6)c5)CC4)C3)C(c3ccccc3C(C)C)C2)c1 (stereo partly shown) [Example 44, 2-((1H-pyrrolo[2,3-b]pyridin-5-yl)oxy)-N-((4-((((1r,4r)-4-hydroxy-4-methylcyclohexyl)methyl)amino)-3-nitrophenyl)sulfonyl)-4-(2-(2-(2-isopropylphenyl)-4-(3-methoxybenzyl)piperazin-1-yl)-7-azaspiro[3.5]nonan-7-yl) benzamide] | 3.31 nM | 0.3 nM | 0.84 nM | 2.8 | 0.5 nM
CC(C)c1ccccc1C1CN(Cc2ccc3c(c2)CCCC3)CCN1C1CC2(CCN(c3ccc(C(=O)NS(=O)(=O)c4ccc(NC[C@H]5CC[C@](C)(O)CC5)c([N+](=O)[O-])c4)c(Oc4cnc5[nH]ccc5c4)c3)CC2)C1 (stereo partly shown) [Example 54, 2-((1H-pyrrolo[2,3-b]pyridin-5-yl)oxy)-N-((4-((((1r,4r)-4-hydroxy-4-methylcyclohexyl)methyl)amino)-3-nitrophenyl)sulfonyl)-4-(2-(2-(2-isopropylphenyl)-4-((5,6,7,8-tetrahydronaphthalen-2-yl)methyl)piperazin-1-yl)-7-azaspiro[3.5]nonan-7-yl)benzamide] | 11.7 nM | 0.76 nM | 4.7 nM | 6.2 | 0.79 nM
CC(C)c1ccccc1C1CN(CC2CCOc3ccccc32)CCN1C1CC2(CCN(c3ccc(C(=O)NS(=O)(=O)c4ccc(NC[C@H]5CC[C@](C)(O)CC5)c([N+](=O)[O-])c4)c(Oc4cnc5[nH]ccc5c4)c3)CC2)C1 (stereo partly shown) [Example 57, 2-((1H-pyrrolo[2,3-b]pyridin-5-yl)oxy)-4-(2-(4-(chroman-4-ylmethyl)-2-(2-isopropylphenyl)piperazin-1-yl)-7-azaspiro[3.5]nonan-7-yl)-N-((4-((((1r,4r)-4-hydroxy-4-methylcyclohexyl)methyl)amino)-3-nitrophenyl)sulfonyl)benzamide] | 8.9 nM | 0.44 nM | 2.2 nM | 5.0 | 0.8 nM
CC(C)c1ccccc1C1CN(C(=O)c2ccccc2)CCN1C1CC2(CCN(c3ccc(C(=O)NS(=O)(=O)c4ccc(NC[C@H]5CC[C@](C)(O)CC5)c([N+](=O)[O-])c4)c(Oc4cnc5[nH]ccc5c4)c3)CC2)C1 (stereo partly shown) [Example 60] | 2.52 nM | 0.057 nM | 1.6 nM | 28.1 | 0.35 nM
CC(C)c1ccccc1C1CN(S(=O)(=O)c2ccccc2)CCN1C1CC2(CCN(c3ccc(C(=O)NS(=O)(=O)c4ccc(NC[C@H]5CC[C@](C)(O)CC5)c([N+](=O)[O-])c4)c(Oc4cnc5[nH]ccc5c4)c3)CC2)C1 (stereo partly shown) [Example 62, 2-((1H-pyrrolo[2,3-b]pyridin-5-yl)oxy)-N-((4-((((1r,4r)-4-hydroxy-4-methylcyclohexyl)methyl)amino)-3-nitrophenyl)sulfonyl)-4-(2-(2-(2-isopropylphenyl)-1-(phenylsulfonyl)piperazin-1-yl)-7-azaspiro[3.5]nonan-7-yl) benzamide] | 28.4 nM | 0.33 nM | 13 nM | 39.4 | 2.4 nM
